According to patent US5639715A, “Aqueous based drilling fluid additive and composition” (M-I Drilling Fluids LLC, priority 1994, dated 1997):

Columns and labels:
Assay type in all cases: physicochemical
[1] = lubricity coefficient, Baroid lubricity meter (Table 4); settings: 1% solution in deionized water
Method: A 1% solution of surfactant as in deionized water was tested on a Baroid lubricity meter (Model No. 21200-EP/Lubricity Tester). The lubricity coefficient of the samples were calculated and recorded in Table 4. Deionized water was used as base.

[2] = coefficient of friction on sandstone, Lubricity Evaluation Monitor (LEM) (Table 5); settings: 1/2% in 22.5 ppb bentonite slurry
Method: The following experiment shower the lubricity properties of surfactants of this invention in 22.5 ppb bentonite slurry in water. The coefficient of friction on sandstone was determined using a Lubricity Evaluation Monitor (LEM) designed by M-I Drilling Fluids Company.

[3] = surface tension measurement at various concentrations and temperatures
Method: The surface tension measurement were carried out on Monawet SNO-35 and coco diethanolamide (CDA) at various concentrations and various temperatures. The following results establish that the higher surface tension values of the products of this invention when compared to the prior art, coco diethanolamide (CDA), would have lower foaming in drilling fluid applications.

Question: For `CCCCCCCCCCCCCCCCCCN(C(=O)CC(C(=O)O)S(=O)(=O)O)C(CC(=O)O)C(=O)O` (stereo not shown) [Monawet SNO-35, tetrasodium N-(1,2-dicarboxyethyl) N-alkyl (C18) sulfosuccinamate], which Lubricity coefficient [1] is on record?
Answer: .095

Question: And the “% Reduction (lubricity coefficient)” value ([1]; versus DI water)?
Answer: 72%

Question: What about the “% Reduction (coefficient of friction)” value [2] of the same compound?
Answer: 73.9%

Question: What about the “Coefficient of Friction” value [2] of the same compound?
Answer: 0.168

Question: What about the “Surface Tension” value ([3]; 0.1% in DI water, 24 °C) of the same compound?
Answer: 51 dynes per centimeter

Question: And the “Surface Tension” value ([3]; 0.1% in DI water, 38 °C)?
Answer: 47 dynes per centimeter

Question: And the “Surface Tension” value ([3]; 0.1% in DI water, 43 °C)?
Answer: 45 dynes per centimeter

Question: What about the “Surface Tension” value ([3]; 0.1% in DI water, 50 °C) of the same compound?
Answer: 44 dynes per centimeter

Question: And the “Surface Tension” value ([3]; 1.0% in DI water, 24 °C)?
Answer: 49 dynes per centimeter

Question: And the “Surface Tension” value ([3]; 1.0% in DI water, 36 °C)?
Answer: 42 dynes per centimeter

Question: And the “Surface Tension” value ([3]; 1.0% in DI water, 45 °C)?
Answer: 38 dynes per centimeter

Question: And the “Surface Tension” value ([3]; 1.0% in DI water, 50 °C)?
Answer: 37 dynes per centimeter

Question: What about the “Surface Tension” value ([3]; 2.0% in DI water, 24 °C) of the same compound?
Answer: 46 dynes per centimeter

Question: And the “Surface Tension” value ([3]; 2.0% in DI water, 38 °C)?
Answer: 41 dynes per centimeter

Question: What about the “Surface Tension” value ([3]; 2.0% in DI water, 44 °C) of the same compound?
Answer: 39 dynes per centimeter

Question: What about the “Surface Tension” value ([3]; 2.0% in DI water, 49 °C) of the same compound?
Answer: 37 dynes per centimeter
